Measured values from patent publication US7148232B2, “Oxazolo, thiazolo and selenazolo [4,5-c]-quinolin-4-amines and analogs thereof” (3M Innovative Properties Company, priority 1998, dated 2006).

Columns and labels:
interferon (α) [1] = assay: Cytokine induction in human cells: interferon (α) secreted by PBMCs (ELISA or bioassay); assay type: cell-based; conditions: 18 to 24 hours
Procedure: (§1) An in vitro human blood cell system was used to assess cytokine induction by compounds of the invention.
(§2) Whole blood is collected by venipuncture into EDTA vacutainer tubes from healthy human donors. […] The PBMC suspension is added to 48 well flat bottom sterile tissue culture plates (Costar, Cambridge, Mass. or Becton Dickinson Labware, Lincoln Park, N.J.) containing an equal volume of RPMI complete media containing test compound.
(§3) The compounds are solubilized in dimethyl sulfoxide (DMSO). The DMSO concentration should not exceed a final concentration of 1% for addition to the culture wells.
(§4) The solution of test compound is added at 60 μM to the first well containing RPMI complete and serial 3 fold dilutions are made. The PBMC suspension is then added to the wells in an equal volume, bringing the test compound concentrations to the desired range (0.12 to 30 μM). The final concentration of PBMC suspension is 1.5–2×10^6 cells/mL. The plates are covered with sterile plastic lids, mixed gently and then incubated for 18 to 24 hours at 37° C. in a 5% carbon dioxide atmosphere.
(§5) Following incubation the plates are centrifuged for 5–10 minutes at 1000 rpm (˜200×g) at 4° C. The cell culture supernatant is removed with a sterile polypropylene pipet and transferred to sterile polypropylene tubes. Samples are maintained at −30 to −70° C. until analysis. The samples are analyzed for interferon (α) by either ELISA or bioassay and for tumor necrosis factor (α) by ELISA
Interferon is determined by bioassay using A549 human lung carcinoma cells challenged with encephalomyocarditis. […] Briefly stated the method is as follows: A549 cells are incubated with dilutions of samples or a standard interferon at 37° C. for 24 hours. The incubated cells are then infected with an inoculum of encephalomyocarditis virus. The infected cells are incubated for an additional 24 hours at 37° C. before evaluating for viral cytopathic effect. The viral cytopathic effect is quantified by staining with crystal violet followed by visual scoring of the plates. Results are expressed as alpha reference units/mL based on the value obtained for NIH Human Leukocyte IFN standard.
Interferon (α) concentration is determined by ELISA using a Human Multi-Species kit from PBL Biomedical Laboratories, New Brunswick, N.J. according to the manufacturer's instructions.

[2] = tested on: tumor necrosis factor (α); assay: Cytokine induction in human cells: tumor necrosis factor (α) secreted by PBMCs (ELISA); assay type: cell-based; conditions: 18 to 24 hours
Procedure: as §1, §2, §3, §4, §5
Tumor necrosis factor (α) (TNF) concentration is determined using ELISA kits available from Genzyme, Cambridge, Mass.; R&D Systems, Minneapolis, Minn.; or Pharmingen, San Diego, Calif. according to the manufacturer's instructions.

interferon (α) [3] = assay: Interferon (α) induction in human cells (in vitro human blood cell system, interferon by bioassay); assay type: cell-based; conditions: human PBM's, 48 hours
Procedure: An in vitro human blood cell system was used to assess interferon induction by compounds of the invention. Activity is based on the measurement of interferon secreted into culture media. Interferon is measured by bioassay.
Whole blood is collected by venipuncture into EDTA vacutainer tubes. Peripheral blood mononuclear cells (PBM's) are separated from whole blood by using either LeucoPREP™ Brand Cell Separation Tubes (available from Becton Dickinson) or Ficoll-Paque® solution (available from Pharmacia LKB Biotechnology Inc, Piscataway, N.J.). […] 200 μL portions of PBM suspension are added to 96 well (flat bottom) sterile tissue culture plates (Becton Dickinson Labware, Lincoln Park, N.J.).
The compounds are solubilized in ethanol, dimethyl sulfoxide or tissue culture water then diluted with tissue culture water, 0.01N sodium hydroxide or 0.01N hydrochloric acid (The choice of solvent will depend on the chemical characteristics of the compound being tested.). Ethanol or DMSO concentration should not exceed a final concentration of 1% for addition to the culture wells. Compounds are initially tested in a concentration range of from about 0.1 μg/mL to about 5 μg/mL. Compounds which show induction at a concentration of 0.5 μg/mL are then tested in a wider concentration range.
The solution of test compound is added in a volume (less than or equal to 50 μL) to the wells containing 200 μL of diluted whole blood or of PBM's in media. Solvent and/or media is added to control wells (wells with no test compound) and as needed to adjust the final volume of each well to 250 μL. The plates are covered with plastic lids, vortexed gently and then incubated for 48 hours at 37° C. with a 5% carbon dioxide atmosphere.
Following incubation, the plates are covered with parafilm and then centrifuged at 1000 rpm for 10 to 15 minutes at 4° C. in a Damon IEC Model CRU-5000 centrifuge. Media (about 200 μL) is removed from 4 to 8 wells and pooled into 2 mL sterile freezing vials. Samples are maintained at −70° C. until analysis.
Interferon is determined by bioassay using A549 human lung carcinoma cells challenged with encephalomyocarditis. The details of the bioassay method have been described by G. L. Brennan and L. H. Kronenberg in “Automated Bioassay of Interferons in Micro-test Plates”, Biotechniques, June/Jul. […] The incubated cells are infected with an inoculum of encephalomyocarditis virus. The infected cells are incubated for an additional period at 37° C. before quantifying for viral cytopathic effect. The viral cytopathic effect is quantified by staining followed by spectrophotometric absorbance measurements. Results are expressed as alpha reference units/mL based on the value obtained for NIH HU IF-L standard.
Compounds of the invention were tested for their ability to induce interferon in human cells using the test method described above.

SMILES | Interferon (α) Induction in Human Cells (interferon (α) [3]; Dose Concentration 0.01 μg/mL) | Interferon (α) Induction in Human Cells (interferon (α) [3]; Dose Concentration 0.05 μg/mL) | Interferon (α) Induction in Human Cells (interferon (α) [3]; Dose Concentration 0.10 μg/mL) | Interferon (α) Induction in Human Cells (interferon (α) [3]; Dose Concentration 0.50 μg/mL) | Interferon (α) Induction in Human Cells (interferon (α) [3]; Dose Concentration 1.0 μg/mL) | Interferon (α) Induction in Human Cells (interferon (α) [3]; Dose Concentration 5.0 μg/mL) | melting point [°C] | other results
CC(C)c1nc2c(N)nc3ccccc3c2s1 [Example 20, 2-(1-Methyethyl)thiazolo[4,5-c]quinolin-4-amine] | − | − | − | − | − | + | 163 to 165 | Interferon (α) Induction (interferon (α) [1]; Dose Concentration 0.12 μM): −; Interferon (α) Induction (interferon (α) [1]; Dose Concentration 0.37 μM): −; Interferon (α) Induction (interferon (α) [1]; Dose Concentration 1.11 μM): +; Interferon (α) Induction (interferon (α) [1]; Dose Concentration 3.33 μM): −; Interferon (α) Induction (interferon (α) [1]; Dose Concentration 10 μM): −; Interferon (α) Induction (interferon (α) [1]; Dose Concentration 30 μM): −; Tumor Necrosis Factor Induction ([2]; Dose Concentration 0.12 μM): −; Tumor Necrosis Factor Induction ([2]; Dose Concentration 0.37 μM): −; Tumor Necrosis Factor Induction ([2]; Dose Concentration 1.11 μM): −; Tumor Necrosis Factor Induction ([2]; Dose Concentration 3.33 μM): +; Tumor Necrosis Factor Induction ([2]; Dose Concentration 10 μM): +; Tumor Necrosis Factor Induction ([2]; Dose Concentration 30 μM): +; Interferon (α) Induction in Human Cells (interferon (α) [3]; Dose Concentration 10.0 μg/mL): +; Interferon (α) Induction in Human Cells (interferon (α) [3]; Dose Concentration 25.0 μg/mL): +; Interferon (α) Induction in Human Cells (interferon (α) [3]; Dose Concentration 50.0 μg/mL): +
CCCCc1nc2c(N)nc3cc(C)ccc3c2o1 [Example 46, 2-Butyl-7-methyloxazolo[4,5-c]quinolin-4-amine] | − | + | + | + | + | + | 187 to 188 | 
CCCc1nc2c(N)nc3cc(C)ccc3c2o1 [Example 47, 7-Methyl-2-propyloxazolo[4,5-c]quinolin-4-amine] | − | + | + | + | + | + | 188 to 189 | 
CCCc1nc2c(N)nc3cc(F)ccc3c2o1 [Example 48, 7-Fluoro-2-propyloxazolo[4,5-c]quinolin-4-amine] | − | − | − | + | + | + | 184 to 187 | 
CCCc1nc2c(N)nc3cc(F)ccc3c2s1 [Example 49, 7-Fluoro-2-propylthiazolo[4,5-c]quinolin-4-amine] | − | − | − | + | + | + | 192.5 to 193.5 | 
